In US12582657B2, “Combination therapy including a KRAS G12C inhibitor and one or more additional pharmaceutically active agents for the treatment of cancers” (Amgen Inc., priority 2018, dated 2026):
Values belong to the molecule of their own block, whether it stands above or below them.

How the values were obtained:
KRAS^G12C/C118A = target: T1, KRAS^G12C/C118A (Homo sapiens, UniProt P01116, C118A/G12C); test: SOS1-catalyzed coupled nucleotide exchange assay (Alpha); format: biochemical
T1 construct: Recombinant His-tagged human KRAS^G12C/C118A (1-169); made in house; host or cells: Escherichia coli (KRAS, c-RAF); Trichoplusia ni (SOS1)
T1 sequence (P01116 1-169 isoform P01116-2 G12C/C118A): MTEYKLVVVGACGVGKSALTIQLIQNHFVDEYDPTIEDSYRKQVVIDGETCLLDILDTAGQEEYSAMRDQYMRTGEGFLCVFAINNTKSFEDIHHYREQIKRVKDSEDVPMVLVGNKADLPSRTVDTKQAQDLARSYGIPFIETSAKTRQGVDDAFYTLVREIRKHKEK
Experimental: (§1) A cysteine-light mutant construct was used for co-crystallization studies based on the work of Ostrem et al^15.
(§2) The inhibition of the SOS1-catalyzed nucleotide exchange activity of KRAS^G12C/C118A or KRAS^C118A was measured using Alpha (Amplified Luminescent Proximity Homogeneous Assay) technology. […] For all subsequent steps, DTT was added to the reaction buffer at a final concentration of 1 mM. […] Finally, c-RAF RBD (50 nM final), Alpha glutathione donor beads (PerkinElmer; 20 μg/mL final), and AlphaLISA® nickel chelate acceptor beads (PerkinElmer; 20 μg/mL final), all diluted in DTT-reaction buffer, were added. The reaction mixture was incubated at RT for 5 min, and then the plates were read on an EnVision® Multilabel Reader using the AlphaScreen protocol. […] Signal intensity corresponded with the association of c-RAF RBD with GTP-bound KRAS^G12C/C118A or KRAS^C118A and was normalized to DMSO control.

KRAS^C118A = target: T2, KRAS^C118A (Homo sapiens, UniProt P01116, C118A); test: as above; format: biochemical; conditions: wildtype at position 12
T2 construct: His-tagged human KRAS^C118A (1-169); made in house; host or cells: Escherichia coli (KRAS, c-RAF); Trichoplusia ni (SOS1)
T2 sequence (P01116 1-169 isoform P01116-2 C118A): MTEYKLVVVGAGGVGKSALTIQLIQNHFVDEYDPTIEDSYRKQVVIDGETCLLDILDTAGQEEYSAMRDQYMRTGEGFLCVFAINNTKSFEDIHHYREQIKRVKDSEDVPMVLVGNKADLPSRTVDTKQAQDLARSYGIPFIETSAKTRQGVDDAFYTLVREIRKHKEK
Experimental: as §1, §2

[1] = test system: ERK1/2 phosphorylation in CT-26 KRAS p.G12C tumors; test: Tumor pharmacodynamic assay (p-ERK, MSD immunoassay); conditions: MEKi 10 mg/kg single oral dose; 2 hours
[2] = test system: immune cells in CT-26 KRAS p.G12C tumors; test: Tumor immunophenotyping by flow cytometry; format: in vivo, mouse; conditions: after 4 days of treatment
KRAS^G12C = KRAS^G12C (Homo sapiens, UniProt P01116, G12C); test: Cellular kinetics from time- and concentration-dependence of p-ERK inhibition; format: cell-based; conditions: NCI-H358 cells
Chain of KRAS^G12C (P01116 1-188 isoform P01116-2 G12C): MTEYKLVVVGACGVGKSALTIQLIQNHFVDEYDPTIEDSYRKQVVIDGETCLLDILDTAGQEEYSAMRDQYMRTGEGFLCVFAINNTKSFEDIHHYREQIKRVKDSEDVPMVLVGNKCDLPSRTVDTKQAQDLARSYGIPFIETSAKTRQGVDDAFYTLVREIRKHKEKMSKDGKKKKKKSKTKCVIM
Experimental: To provide an alternative estimate of the rate of GTP-hydrolysis by KRAS^G12C, a SHP2 inhibitor was employed to eliminate all upstream signaling to KRAS.
To determine the kinetic values of covalent inhibitor-KRAS^G12C adduct formation in cells, basal ERK1/2 phosphorylation levels were measured following treatment with various inhibitor concentrations at various incubation times exactly as described above, and % activity values were used for the kinetic calculations.

MIA PaCa-2 (pancreas) = test: In vitro two-way combination matrix, growth inhibition, Loewe synergy score; format: cell-based, human
NCI-H358 tumors = test: Tumor xenograft efficacy study, single agent and combinations; format: in vivo, mouse; conditions: AMG 510 10 or 30 mg/kg QD oral; carboplatin 50 or 100 mg/kg IP 1x/week

Compound: CCC(=O)N1CCN(c2nc(=O)n(-c3c(C)ccnc3C(C)C)c3nc(-c4c(O)cccc4F)c(F)cc23)[C@@H](C)C1 (atropisomer, axis not shown; (M)) [non-reactive analog of AMG 510, (M)-6-Fluoro-7-(2-fluoro-6-hydroxyphenyl)-1-(4-methyl-2-(2-propanyl)-3-pyridinyl)-4-((2S)-2-methyl-4-propanoyl-1-piperazinyl)pyrido[2,3-d]pyrimidin-2(1H)-one]
inhibition of KRAS^G12C/C118A nucleotide exchange (KRAS^G12C/C118A): minimal activity
inhibition of KRAS^C118A nucleotide exchange (KRAS^C118A): minimal activity

Compound: O=C(NOC[C@H](O)CO)c1ccc(F)c(F)c1Nc1ccc(I)cc1F [MEKi, N-(((2R)-2,3-dihydroxypropyl)oxy)-3,4-difluoro-2-((2-fluoro-4-iodophenyl)amino)benzamide]
MAPK signaling in tumors [1]: blocked MAPK signaling downstream of RAS
PD-1 expression on CD8+ T cells [2]: moderately increased
T cell infiltration of tumors [2]: did not affect numbers of infiltrating CD8+ T cells
infiltration of macrophages and dendritic cells [2]: not observed

cellular GTP hydrolysis rate from p-ERK inhibition by SHP2 inhibitor (KRAS^G12C): 0.00094 s⁻¹
Compound: Cc1nc(N2CCC3(CC2)CO[C@@H](C)[C@H]3N)c(CO)nc1-c1cccc(Cl)c1Cl [RMC-4550]
single agent activity (MIA PaCa-2 (pancreas)): lack of single agent activity

Compound: C#Cc1cccc(Nc2ncnc3cc(OCCOC)c(OCCOC)cc23)c1 [erlotinib]
single agent activity (MIA PaCa-2 (pancreas)): lack of erlotinib activity

Compound: N.N.O=C([O-])C1(C(=O)[O-])CCC1.[Pt+2] [carboplatin]
tumor growth, carboplatin combination study (NCI-H358 tumors): significant tumor growth inhibition
